Reference: patent US8404704B2 (Alfa Wassermann S.p.A., priority 2003, dated 2013)

Experiments:
[1] = in vivo; design: species or system Beagle female dogs; conditions: dog; for AUC(0-t) / AUC(0-inf) / Cmax / Tmax: female, beagle, po; for AUC(0-t): AUC0-24 h; for AUC(0-inf): AUC0-inf
Method: Sixteen 20 week pure-bred Beagle female dogs weighing between 5.0 and 7.5 kg, have been divided into four groups of four dogs.
Each sample was transferred into a heparinized tube and was centrifuged; the plasma was divided into 500 μl two aliquots and frozen at −20° C.
(§1) Tmax=time at which the Cmax is reached;
(§2) AUC=area under the concentration-time curve calculated through the linear trapezoidal rule.

[2] = in vivo; design: species or system Beagle female dogs; conditions: female, beagle, dog, po; for Tmax: tmax (characterising range of the form)
Method: Twelve 20 week pure-bred Beagle female dogs weighing between 5.0 and 7.5 kg, have been divided into three groups of four dogs.
Each sample was transferred into an heparinized tube and was centrifuged; the plasma was divided into two 500 μl aliquots and frozen at −20° C.
as §1, §2

[3] = Intrinsic dissolution test (USP 27 monograph 1087); type: physicochemical; conditions: 0.1M aqueous phosphate buffer pH 7.4 with 0.45% sodium lauryl sulphate, 37°C
Text: The die-holder containing the compacted pellet was then mounted on a laboratory stirring device, immersed in a dissolution medium and rotated by means of the stirring device.
A compacted pellet was formed in the die with a single face of defined area exposed on the bottom of the die so that from 50% to 75% of the compacted pellet could dissolve in an appropriate dissolution medium.
The holder containing the die was mounted on a laboratory stirring device, immersed in a glass vessel containing a dissolution medium and rotated at a rotation speed of 100 rpm by means of the stirring device, while keeping the temperature of the dissolution medium at 37±0.5° C. The dissolution medium contained in the glass vessel consisted of 1000 ml of 0.1M aqueous phosphate buffer pH 7.4 containing 4.5 g of sodium lauryl sulphate (SLS) and was kept at 37±0.5° C. for the whole duration of the test.

[4] = Intrinsic dissolution test (USP 27 monograph 1087); type: physicochemical; conditions: phosphate buffer pH 7.4, 37°C; SLS 0.1%, 0.3%, 0.45% and absent
[5] = Reversible conversion of polymorphic forms with water content; type: physicochemical; conditions: water absorbed from atmospheric humidity
Text: The product is hygroscopic and the obtained polymorphic form is reversible: the polymorphic form α absorbs water from atmospheric humidity, depending on the relative humidity and the exposure time. When the water content absorbed by the polymorphic form α becomes higher than 4.5%, polymorphous a converts to polymorphous β. This in its turn loses part of water by drying, changing into the polymorphic form α when a water content between […] is reached.

SMILES	AUC0-inf (characterising range of the form) [2] [ng·h/mL]	Cmax (characterising range of the form) ([2]; 100 mg/kg) [ng/mL]	tmax (characterising range of the form) ([2]; 100 mg/kg) [h]	Intrinsic dissolution rate [3] [mg/min/cm^2]	Rifaximin dissolved ([3]; 15 min) [mg/cm^2]	Rifaximin dissolved ([3]; 30 min) [mg/cm^2]	Rifaximin dissolved ([3]; 45 min) [mg/cm^2]	Rifaximin dissolved ([3]; 60 min) [mg/cm^2]	AUC0-24h (characterising range of the form) [2] [ng·h/mL]	Cmax (characterising range of the form) [2] [ng/mL]	AUC0-inf (characterising range of the form) ([2]; 100 mg/kg) [ng·h/mL]	further results
CO[C@H]1/C=C/O[C@@]2(C)Oc3c(C)c(O)c4c(O)c(c5c(nc6cc(C)ccn65)c4c3C2=O)NC(=O)/C(C)=C\C=C\[C@H](C)[C@H](O)[C@@H](C)[C@@H](O)[C@@H](C)[C@H](OC(C)=O)[C@@H]1C [rifaximin γ, Rifaximin]	0.0 to 22000	0.0 to 5000	1.0 to 6.0	0.1444	2.46	4.52	6.44	9.04	–	–	–	dose dependency of exposure (in words) [1]: tended to increase in an over-proportional way compared to the administered dose; AUC(0-t) ([1]; 25 mg/kg): 304 ng·h/mL; AUC(0-inf) ([1]; 25 mg/kg): 548 ng·h/mL; Cmax ([1]; 25 mg/kg): 114 ng/mL; Tmax ([1]; 25 mg/kg, tmax): 1.5 h; Tmax ([1]; 100 mg/kg): 2 h; AUC(0-t) ([1]; 300 mg/kg): 25000 ng·h/mL; AUC(0-inf) ([1]; 300 mg/kg): 25500 ng·h/mL; Cmax ([1]; 300 mg/kg): 3150 ng/mL; Tmax ([1]; 300 mg/kg, tmax): 3 h; AUC(0-t) ([2]; 100 mg/kg, AUC0-24h (characterising range of the form)): < 22000 ng·h/mL; Cmax ([2]; Cmax): 1080 ng/mL
CO[C@H]1/C=C/O[C@@]2(C)Oc3c(C)c(O)c4c(O)c(c5c(nc6cc(C)ccn65)c4c3C2=O)NC(=O)/C(C)=C\C=C\[C@H](C)[C@H](O)[C@@H](C)[C@@H](O)[C@@H](C)[C@H](OC(C)=O)[C@@H]1C [rifaximin α, Rifaximin]	10 to 24	0.0 to 5.5	1.0 to 6	–	–	–	–	–	0 to 100	0.0 to 10	0 to 110	Tmax ([1]; 100 mg/kg, tmax): 2.5 h; disintegration of the compacted pellet [4]: ≤ 10 min; Tmax [2]: 1 to 6 h; water content above which form α converts to form β [5]: higher than 4.5%
CO[C@H]1/C=C/O[C@@]2(C)Oc3c(C)c(O)c4c(O)c(c5c(nc6cc(C)ccn65)c4c3C2=O)NC(=O)/C(C)=C\C=C\[C@H](C)[C@H](O)[C@@H](C)[C@@H](O)[C@@H](C)[C@H](OC(C)=O)[C@@H]1C [rifaximin β, Rifaximin]	0 to 45	0.0 to 3.7	–	0.0147	0.28	0.50	0.72	0.94	0 to 40	0.0 to 40	0.0 to 50	tmax (characterising range of the form) [2]: 1 to 6 h; AUC(0-t) ([2]; 100 mg/kg, AUC0-t (characterising range of the form)): < 40 ng·h/mL; Tmax ([2]; 100 mg/kg): 1 to 6 h
